{"source": "patent US11198695B2", "about": "“Fused ring derivative having MGAT-2 inhibitory activity” (Shionogi & Co., Ltd., priority 2017, dated 2021)", "key": {"[1]": {"assay": "Metabolism stability test", "format": "in vitro ADME", "conditions": "human liver microsomes, 30 minutes, 37° C., NADPH, 0.5 μmol/L of test compound", "procedure": "Using commercially available pooled human hepatic microsomes, the compound of the present invention was reacted for a constant time, a remaining rate was calculated by comparing a reacted sample and an unreacted sample, thereby, a degree of metabolism of the compound of the present invention in liver was assessed.\nA reaction was performed (oxidative reaction) at 37° C. for 0 minute or 30 minutes in the presence of 1 mmol/L NADPH in 0.2 mL of a buffer (50 mmol/L Tris-HCl pH 7.4, 150 mmol/L potassium chloride, 10 mmol/L magnesium chloride) containing 0.5 mg protein/mL of human liver microsomes. After the reaction, 50 μL of the reaction solution was added to 100 μL of a methanol/acetonitrile=1/1 (v/v) solution, mixed and centrifuged at 3000 rpm for 15 minutes. The compound of the present invention in the supernatant was quantified by LC/MS/MS, and a remaining amount of the compound of the present invention after the reaction was calculated, letting a compound amount at 0 minute reaction time to be 100%. (Result) Remaining rate was shown at 0.5 μmol/L of test compound."}, "hERG channel (IKr)": {"molecular_target": "hERG channel (IKr) (Homo sapiens (Human), UniProt Q12809)", "sequence (Q12809 whole entry)": "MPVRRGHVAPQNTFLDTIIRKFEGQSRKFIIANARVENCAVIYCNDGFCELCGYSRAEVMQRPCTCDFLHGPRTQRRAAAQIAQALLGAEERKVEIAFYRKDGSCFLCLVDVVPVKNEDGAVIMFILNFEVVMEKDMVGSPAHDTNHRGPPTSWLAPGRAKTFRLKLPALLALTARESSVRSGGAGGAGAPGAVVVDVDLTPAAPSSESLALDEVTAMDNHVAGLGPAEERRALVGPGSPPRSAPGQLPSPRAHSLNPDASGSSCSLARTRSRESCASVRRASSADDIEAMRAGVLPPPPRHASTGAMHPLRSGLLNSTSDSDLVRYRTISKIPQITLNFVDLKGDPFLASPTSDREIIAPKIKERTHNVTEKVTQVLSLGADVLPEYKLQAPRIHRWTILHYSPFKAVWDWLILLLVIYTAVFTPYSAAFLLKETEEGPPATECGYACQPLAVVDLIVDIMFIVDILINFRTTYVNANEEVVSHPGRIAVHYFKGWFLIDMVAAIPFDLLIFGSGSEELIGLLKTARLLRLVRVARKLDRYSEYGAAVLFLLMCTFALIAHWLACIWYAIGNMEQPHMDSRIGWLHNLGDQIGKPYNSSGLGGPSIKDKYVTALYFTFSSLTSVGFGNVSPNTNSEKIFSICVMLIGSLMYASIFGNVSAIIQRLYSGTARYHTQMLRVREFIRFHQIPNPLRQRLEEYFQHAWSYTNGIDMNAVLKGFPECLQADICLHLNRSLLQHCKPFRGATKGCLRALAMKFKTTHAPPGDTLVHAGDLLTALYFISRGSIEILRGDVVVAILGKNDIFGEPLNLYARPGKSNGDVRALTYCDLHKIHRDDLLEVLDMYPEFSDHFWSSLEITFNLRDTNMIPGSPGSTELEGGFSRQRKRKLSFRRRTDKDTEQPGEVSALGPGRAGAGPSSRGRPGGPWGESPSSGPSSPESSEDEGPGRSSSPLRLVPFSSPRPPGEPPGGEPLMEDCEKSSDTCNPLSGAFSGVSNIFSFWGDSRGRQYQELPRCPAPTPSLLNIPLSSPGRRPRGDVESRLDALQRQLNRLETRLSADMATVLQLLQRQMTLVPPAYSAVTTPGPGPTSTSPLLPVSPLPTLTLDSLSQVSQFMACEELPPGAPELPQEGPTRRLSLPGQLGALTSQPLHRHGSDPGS", "assay": "hERG test", "format": "cell-based", "conditions": "pH 7.4, CHO cells expressing hERG channel, 10 μmol/L of test compound, read-out: % inhibition of tail peak current (IKr)", "description": "For the purpose of assessing risk of an electrocardiogram QT interval prolongation of the compound of the present invention, effects of the compound of the present invention on delayed rectifier K^+ current (IKr), which plays an important role in the ventricular repolarization process, was studied using CHO cells expressing human ether-a-go-go related gene (hERG) channel.\nAfter a cell was retained at a membrane potential of −80 mV by whole cell patch clamp method using an automated patch clamp system (QPatch; Sophion BIoscience A/S), IKr induced by application of a leak potential of −50 mV followed by depolarization pulse stimulation at +20 mV for 2 seconds and, further, repolarization pulse stimulation at −50 mV for 2 seconds, was recorded. […] From the recording IKr, an absolute value of the tail peak current was measured based on the current value at the resting membrane potential using analysis software (Falster Patch; Sophion Bioscience A/S). Further, the % inhibition of tail peak current for the compound of the present invention relative to the tail peak current after application of the vehicle is calculated to assess influence of the compound of the present invention on IKr. (Result) % inhibition was shown at 10 μmol/L of test compound."}, "[2]": {"assay": "Solubility test (1% DMSO addition, pH 6.8 artificial intestinal juice)", "format": "physicochemical", "conditions": "pH 6.8 artificial intestinal juice with 1% DMSO, kinetic from dmso stock, 16 hours at 25° C.", "procedure": "The solubility of the compound of the present invention was determined under 1% DMSO addition conditions. 10 mmol/L solution of the compound was prepared with DMSO, and 6 μL of the solution of the compound of the present invention was added to 594 μL of pH 6.8 artificial intestinal juice (118 mL of 0.2 mol/L NaOH test solution and water were added to 250 mL of 0.2 mol/L potassium dihydrogen phosphate test solution to reach 1000 mL). The mixture was left standing for 16 hours at 25° C., and the mixture was vacuum-filtered. The filtrate was two-fold diluted with methanol/water=1/1 (V/V), and the compound concentration in the filtrate was measured with HPLC or LC/MS/MS by the absolute calibration method."}, "Powder solubility test": {"assay": "Powder solubility test", "format": "physicochemical", "conditions": "pH 6.8, aqueous buffer, thermodynamic from solid, JP-2 solution, 37° C.", "procedure": "Appropriate quantity of the compound of the present invention was put in suitable containers. 200 μL of JP-1 solution (water was added to 2.0 g of sodium chloride and 7.0 mL of hydrochloric acid to reach 1000 mL), 200 μL of JP-2 solution (500 mL of water was added to 500 mL of phosphate buffer (pH 6.8)) or 20 mmol/L sodium taurocholate (TCA)/JP-2 solution (JP-2 solution was added to 1.08 g of TCA to reach 100 mL) was independently added to each container. When total amount was dissolved after adding the test reagent, the compound of the present invention was added appropriately. After sealing and shaking at 37° C. for 1 hour, solution is filtrated and 100 μL of methanol is added to 100 μL of each filtrate to dilute two-fold. The dilution rate is changed as necessary. After checking that there was no bubble and deposit, the container was sealed and shaken. The compound of the present invention was measured using HPLC by absolute calibration curve method."}, "recombinant human MGAT2": {"molecular_target": "recombinant human MGAT2 (Homo sapiens (Human), UniProt Q3SYC2)", "sequence (Q3SYC2 whole entry)": "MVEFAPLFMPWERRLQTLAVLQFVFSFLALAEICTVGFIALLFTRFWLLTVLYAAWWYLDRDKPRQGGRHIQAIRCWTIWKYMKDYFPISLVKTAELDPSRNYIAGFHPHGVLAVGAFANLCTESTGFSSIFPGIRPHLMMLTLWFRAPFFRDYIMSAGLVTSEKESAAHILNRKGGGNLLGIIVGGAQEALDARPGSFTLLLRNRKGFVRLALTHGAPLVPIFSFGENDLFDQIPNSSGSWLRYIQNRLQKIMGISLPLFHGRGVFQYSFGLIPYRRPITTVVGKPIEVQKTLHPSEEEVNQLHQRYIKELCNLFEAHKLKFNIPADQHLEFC", "assay": "Measurement of human MGAT2 inhibitory activity", "format": "biochemical", "conditions": "read-out: IC50 (concentration exhibiting 50% enzyme inhibition), Table 53", "summary_of_the_method": "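RapidFire ESI-MS read-out of the diolein/diolein-d5 peak ratio gave % inhibition, with no-enzyme and full-enzyme wells as 100% and 0%. Reactions ran 1 h at room temperature at pH 7.4 (phosphate, 2 mmol/L DTT), using Flag-tagged human MGAT2 membranes from Sf9 cells and a substrate solution of 30 μmol/L 2-oleoylglycerol and 10 μmol/L oleoyl-CoA.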"}, "[3]": {"assay": "BA test (oral absorption)", "format": "in vivo", "conditions": "plasma; oral vs intravenous administration, mice or SD rats", "procedure": "Materials and Methods for Experiments to Evaluate Oral Absorption\n(1) Animals: the mice or SD rats were used.\n(2) Breeding conditions: the mice or SD rats were allowed to freely take solid food and sterilized tap water.\n(3) Setting of dosage and grouping: Oral administration and intravenous administration were performed with a predetermined dosage. Grouping was set as below. (dosage changed per compound)\nOral administration: 1 to 30 mg/kg (n=2 to 3)\nIntravenous administration: 0.5 to 10 mg/kg (n=2 to 3)\n(4) Preparation of administration solution: Oral administration was performed in the form of a suspension or a solution. Intravenous administration was performed after solubilization.\n(5) Routes of administration: Oral administration was performed mandatory into the stomach by oral sonde. […]\n(6) Evaluation items: blood was collected over time, and the plasma concentration of the compound of the present invention was measured by LC/MS/MS.\n(7) Statistical analysis: regarding the transition of the plasma concentration of the compound of the present invention, the area under the plasma concentration-time curve (AUC) was calculated by non-linear least squares program WinNonlin (registered trademark), and the bioavailability (BA) of the compound of the present invention was calculated from the AUCs of the oral administration group and intravenous administration group."}, "CYP1A2": {"molecular_target": "CYP1A2 (Homo sapiens (Human), UniProt P05177)", "sequence (P05177 whole entry)": "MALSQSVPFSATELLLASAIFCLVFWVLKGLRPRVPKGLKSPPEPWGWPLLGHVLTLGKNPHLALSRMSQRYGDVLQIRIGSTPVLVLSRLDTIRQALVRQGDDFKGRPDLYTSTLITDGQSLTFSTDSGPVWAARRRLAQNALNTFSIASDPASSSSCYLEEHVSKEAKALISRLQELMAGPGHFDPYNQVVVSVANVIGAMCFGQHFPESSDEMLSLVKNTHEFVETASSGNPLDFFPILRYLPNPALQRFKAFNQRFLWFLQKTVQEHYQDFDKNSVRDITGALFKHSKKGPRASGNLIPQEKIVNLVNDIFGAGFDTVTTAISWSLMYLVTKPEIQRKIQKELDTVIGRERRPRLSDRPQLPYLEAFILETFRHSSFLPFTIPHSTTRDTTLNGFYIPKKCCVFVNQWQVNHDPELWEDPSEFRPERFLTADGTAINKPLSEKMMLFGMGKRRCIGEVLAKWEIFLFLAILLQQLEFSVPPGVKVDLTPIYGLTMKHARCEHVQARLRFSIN", "assay": "CYP inhibition test (7-ethoxyresorufin O-deethylation)", "format": "in vitro ADME", "conditions": "pooled human liver microsomes", "description": "(§1) Using commercially available pooled human hepatic microsome, and employing, as markers, 7-ethoxyresorufin O-deethylation (CYP1A2), tolbutamide methyl-hydroxylation (CYP2C9), mephenytoin 4′-hydroxylation (CYP2C19), dextromethorphan O-demethylation (CYP2D6), and terfenadine hydroxylation (CYP3A4) as typical substrate metabolism reactions of human main five CYP enzyme forms (CYP1A2, 2C9, 2C19, 2D6, 3A4), an inhibitory degree of each metabolite production amount by the compound of the present invention was assessed. […]\n(§2) As a reaction solution, each five kinds of substrates, human liver microsomes, or compound of the present invention in 50 mmol/L Hepes buffer were added to a 96-well plate at the composition as described above, and NADPH, as a cofactor was added to initiate metabolism reactions. […] After the centrifugation at 3000 rpm for 15 minutes, resorufin (CYP1A2 metabolite) in the supernatant was quantified by a fluorescent multilabel counter or LC/MS/MS, and tolbutamide hydroxide (CYP2C9 metabolite), mephenytoin 4′ hydroxide (CYP2C19 metabolite), dextrorphan (CYP2D6 metabolite), and terfenadine alcohol (CYP3A4 metabolite) were quantified by LC/MS/MS.\n(§3) Addition of only DMSO being a solvent dissolving a drug to a reaction system was adopted as a control (100%). Remaining activity (%) was calculated. […]"}, "CYP2C9": {"molecular_target": "CYP2C9 (Homo sapiens (Human), UniProt P11712)", "sequence (P11712 whole entry)": "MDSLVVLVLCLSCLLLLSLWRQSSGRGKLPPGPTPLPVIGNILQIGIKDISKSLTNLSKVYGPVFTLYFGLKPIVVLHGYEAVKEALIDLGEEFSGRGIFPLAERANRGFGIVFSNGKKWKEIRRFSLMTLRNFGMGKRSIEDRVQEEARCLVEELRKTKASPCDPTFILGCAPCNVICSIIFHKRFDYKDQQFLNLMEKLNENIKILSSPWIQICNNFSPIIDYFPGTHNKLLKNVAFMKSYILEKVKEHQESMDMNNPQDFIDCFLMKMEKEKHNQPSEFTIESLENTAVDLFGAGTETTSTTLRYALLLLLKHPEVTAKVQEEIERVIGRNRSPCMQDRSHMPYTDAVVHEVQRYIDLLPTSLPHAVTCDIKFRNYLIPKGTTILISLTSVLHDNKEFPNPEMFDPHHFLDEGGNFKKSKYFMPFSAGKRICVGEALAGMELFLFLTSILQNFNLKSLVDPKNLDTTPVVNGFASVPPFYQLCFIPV", "assay": "CYP inhibition test (tolbutamide methyl-hydroxylation)", "format": "in vitro ADME", "conditions": "pooled human liver microsomes", "description": "as §1, §2, §3"}, "CYP2D6": {"molecular_target": "CYP2D6 (Homo sapiens (Human), UniProt P10635)", "sequence (P10635 whole entry)": "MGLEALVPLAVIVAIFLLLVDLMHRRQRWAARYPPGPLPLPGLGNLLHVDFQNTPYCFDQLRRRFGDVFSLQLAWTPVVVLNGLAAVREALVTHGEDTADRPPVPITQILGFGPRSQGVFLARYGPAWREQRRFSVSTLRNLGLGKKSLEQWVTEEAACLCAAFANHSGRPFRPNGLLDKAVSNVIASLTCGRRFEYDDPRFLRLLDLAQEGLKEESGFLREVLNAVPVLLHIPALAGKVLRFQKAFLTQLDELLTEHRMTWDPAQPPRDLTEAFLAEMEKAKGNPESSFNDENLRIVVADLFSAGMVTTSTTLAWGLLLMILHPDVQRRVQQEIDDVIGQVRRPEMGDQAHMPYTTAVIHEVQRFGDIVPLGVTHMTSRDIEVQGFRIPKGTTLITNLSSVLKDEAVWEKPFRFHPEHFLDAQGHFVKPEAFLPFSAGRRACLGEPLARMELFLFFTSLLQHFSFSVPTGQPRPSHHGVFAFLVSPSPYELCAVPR", "assay": "CYP inhibition test (dextromethorphan O-demethylation)", "format": "in vitro ADME", "conditions": "pooled human liver microsomes", "description": "as §1, §2, §3"}, "CYP2C19": {"molecular_target": "CYP2C19 (Homo sapiens (Human), UniProt P33261)", "sequence (P33261 whole entry)": "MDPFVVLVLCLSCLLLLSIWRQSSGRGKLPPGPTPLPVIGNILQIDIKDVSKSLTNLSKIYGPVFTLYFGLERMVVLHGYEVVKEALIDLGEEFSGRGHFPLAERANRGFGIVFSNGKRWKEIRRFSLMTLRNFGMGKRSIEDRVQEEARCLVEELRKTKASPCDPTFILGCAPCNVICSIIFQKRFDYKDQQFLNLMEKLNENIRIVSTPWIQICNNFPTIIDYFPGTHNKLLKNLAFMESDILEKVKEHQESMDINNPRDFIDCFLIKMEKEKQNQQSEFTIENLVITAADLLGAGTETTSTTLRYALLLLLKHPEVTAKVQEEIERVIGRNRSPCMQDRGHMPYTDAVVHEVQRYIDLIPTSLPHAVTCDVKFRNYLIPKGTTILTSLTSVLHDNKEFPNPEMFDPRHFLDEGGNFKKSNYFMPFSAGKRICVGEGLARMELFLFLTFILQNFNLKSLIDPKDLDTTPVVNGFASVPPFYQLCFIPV", "assay": "CYP inhibition test (mephenytoin 4'-hydroxylation)", "format": "in vitro ADME", "conditions": "pooled human liver microsomes", "description": "as §1, §2, §3"}, "CYP3A4 [4]": {"molecular_target": "T1, CYP3A4 (Homo sapiens (Human), UniProt P08684)", "T1 sequence (P08684 whole entry)": "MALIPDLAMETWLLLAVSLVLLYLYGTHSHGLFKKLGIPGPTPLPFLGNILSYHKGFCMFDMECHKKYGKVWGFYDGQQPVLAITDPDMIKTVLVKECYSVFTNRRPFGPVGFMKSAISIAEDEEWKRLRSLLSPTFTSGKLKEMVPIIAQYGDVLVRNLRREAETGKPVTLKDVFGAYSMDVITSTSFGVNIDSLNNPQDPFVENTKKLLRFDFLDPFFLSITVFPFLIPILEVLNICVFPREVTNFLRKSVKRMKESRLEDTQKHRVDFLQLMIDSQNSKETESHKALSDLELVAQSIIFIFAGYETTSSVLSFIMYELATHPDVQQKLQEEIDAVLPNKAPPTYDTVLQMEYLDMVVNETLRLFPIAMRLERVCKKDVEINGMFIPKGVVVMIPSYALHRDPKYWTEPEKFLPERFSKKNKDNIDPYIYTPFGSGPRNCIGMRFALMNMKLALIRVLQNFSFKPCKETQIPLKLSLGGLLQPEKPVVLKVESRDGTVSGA", "assay": "CYP inhibition test (terfenadine hydroxylation)", "format": "in vitro ADME", "conditions": "pooled human liver microsomes", "description": "as §1, §2, §3"}, "CYP3A4 [5]": {"molecular_target": "T1, CYP3A4", "assay": "CYP3A4 (MDZ) MBI test", "format": "in vitro ADME", "conditions": "pooled human liver microsomes, preincubation 0 or 30 min", "procedure": "CYP3A4 (MDZ) MBI test is a test of investigating mechanism based inhibition (MBI) potential on CYP3A4 by the enhancement of inhibitory degree of a metabolic reaction caused by the compound of the present invention. CYP3A4 inhibition was evaluated using pooled human liver microsomes by 1-hydroxylation reaction of midazolam (MDZ) as a marker reaction. […]\nPooled human liver microsomes and a solution of the compound of the present invention in K-Pi buffer (pH 7.4) as a pre-reaction solution were added to a 96-well plate at the composition of the pre-reaction. […] The plate on which each index reaction had been performed was centrifuged at 3000 rpm for 15 minutes, and thereafter 1-hydroxylated midazolam in the supernatant was quantified by LC/MS/MS.\nThe sample adding DMSO as a solvent to a reaction system instead of a solution dissolving the compound of the present invention was adopted as a control (100%). Remaining activity (%) was calculated at each concentration of the compound of the present invention compared to a control, and IC value was calculated by reverse-presumption by a logistic model using a concentration and an inhibition rate. […]"}}, "data": [{"smiles": "CS(=O)(=O)CC(=O)Nc1c2c(nn1CCCOC(F)(F)F)C[C@]1(CCc3cc(OCC(F)(F)F)ccc31)NC2=O", "note": "[Compound I-253]", "values": [{"measurement": "Remaining rate (%)", "setting": "[1]", "result": 76.8, "unit": "%"}, {"measurement": "inhibition at 10 min, 10 μmol/L", "setting": "hERG channel (IKr)", "result": 6.9, "unit": "%"}, {"measurement": "solubility at 16 h", "setting": "[2]", "result": "> 50", "unit": "µM"}]}, {"smiles": "Cc1ccc(-n2nc3c(c2NC(=O)CS(C)(=O)=O)C(=O)N[C@](C)(c2ccc(OCC(F)(F)F)cc2F)C3)nc1", "note": "[II-94]", "values": [{"measurement": "solubility at 1 h", "setting": "Powder solubility test", "result": 3.4, "unit": "µM"}, {"measurement": "Remaining rate (%)", "setting": "[1]", "result": 98.4, "unit": "%"}, {"measurement": "IC50", "setting": "recombinant human MGAT2", "result": 0.00381, "unit": "µM"}, {"measurement": "bioavailability", "setting": "[3]", "result": 73, "unit": "%"}, {"measurement": "solubility at 16 h", "setting": "[2]", "result": "> 50", "unit": "µM"}]}, {"smiles": "Cc1ccc(-n2nc3c(c2NC(=O)CS(C)(=O)=O)C(=O)N[C@@]2(CCc4cc(OCCCC(F)(F)F)ccc42)C3)nn1", "note": "[II-103]", "values": [{"measurement": "Remaining rate (%)", "setting": "[1]", "result": 95.6, "unit": "%"}, {"measurement": "IC50", "setting": "CYP1A2", "result": "> 20", "unit": "µM"}, {"measurement": "IC50", "setting": "CYP2C9", "result": "> 20", "unit": "µM"}, {"measurement": "IC50", "setting": "CYP2D6", "result": "> 20", "unit": "µM"}, {"measurement": "IC50", "setting": "CYP2C19", "result": "> 20", "unit": "µM"}, {"measurement": "IC50", "setting": "CYP3A4 [4]", "result": "> 20", "unit": "µM"}, {"measurement": "CYP3A4 (MDZ) MBI judgement (Shifted IC)", "setting": "CYP3A4 [5]", "result": "Negative (a case that Shifted IC was 1.0 or less was regarded as Negative)"}, {"measurement": "solubility at 16 h", "setting": "[2]", "result": "> 50", "unit": "µM"}]}]}
